# From ChEMBL document CHEMBL5360518, “Discovery of a novel photoswitchable PI3K inhibitor toward optically-controlled anticancer activity” (Bioorg Med Chem, 2022)
# Active and inactive are the calls of the source. The calls are words filed in the database; no cut-off is given here.
# Tests used:
# NCI-H460 [1] = assay: (§1) Induction of apoptosis in human NCI-H460 cells harboring PI3KCA mutation and overactive PI3K pathway assessed as late apoptotic cells at 0.4 uM incubated for 48 hrs under dark condition by Annexin V-FITC/PI staining based flow cytometry analysis (reference value: 2.27%); format: functional
# HGC-27 [2] = assay: (§2) Induction of apoptosis in human HGC-27 cells harboring PI3KCA mutation and overactive PI3K pathway assessed as late apoptotic cells at 0.08 uM incubated for 48 hrs under dark condition by Annexin V-FITC/PI staining based flow cytometry analysis (reference value: 3.39%); format: functional
# NCI-H460 [3] = assay: (§3) Induction of apoptosis in human NCI-H460 cells harboring PI3KCA mutation and overactive PI3K pathway assessed as early apoptotic cells at 0.08 uM incubated for 48 hrs under dark condition by Annexin V-FITC/PI staining based flow cytometry analysis (reference value: 2.6%); format: functional
# [4] = target: T1, Ribosomal protein S6 kinase (Homo sapiens) (UniProt P51812+Q9UBS0+O75676+Q15349+O75582+P23443+Q9UK32+Q15418); assay: Inhibition of S6 phosphorylation in human HGC-27 cells harboring PI3KCA mutation and overactive PI3K pathway by Western blot analysis; format: cell-based; conditions: dose 0.08-0.4 µM
# [5] = target: RAC-alpha serine/threonine-protein kinase (Homo sapiens) (UniProt P31749); assay: Inhibition of AKT phosphorylation at T308 residue in human HGC-27 cells harboring PI3KCA mutation and overactive PI3K pathway at 0.08 to 0.4 uM compound irradiated for 2 mins at 365 nm by Western blot analysis; format: cell-based; conditions: dose 0.08-0.4 µM
# HGC-27 [6] = assay: (§4) Induction of apoptosis in human HGC-27 cells harboring PI3KCA mutation and overactive PI3K pathway assessed as early apoptotic cells at 0.08 uM incubated for 48 hrs under dark condition by Annexin V-FITC/PI staining based flow cytometry analysis (reference value: 2.26%); format: functional
# HGC-27 [7] = assay: (§5) Antitumor activity against CM-Dil labeled human HGC-27 cells implanted in yolk sac of Albino wild type zebrafish embryos assessed as inhibition of tumor growth by measuring reduction in fluorescence density at 0.391 to 0.781 ng per fish incubated for 48 hrs in dark condition by fluorescence microscopic analysis; format: functional; conditions: dose 0.391-0.781 ng
# HGC-27 [8] = assay: (§6) Induction of apoptosis in human HGC-27 cells harboring PI3KCA mutation and overactive PI3K pathway assessed as late apoptotic cells at 0.4 uM incubated for 48 hrs under dark condition by Annexin V-FITC/PI staining based flow cytometry analysis (reference value: 3.39%); format: functional
# HGC-27 [9] = assay: Inhibition of colony formation in human HGC-27 cells harboring PI3KCA mutation and overactive PI3K pathway assessed as reduction in number of colonies incubated for 10 days under dark condition by crystal violet staining based assay; format: functional, cell-based; conditions: dose 0.08-0.4 µM, time 10.0 day
# [10] = target: T2, Phosphatidylinositol 4,5-bisphosphate 3-kinase catalytic subunit alpha isoform (Homo sapiens, UniProt P42336); assay: Inhibition of PI3Kalpha (unknown origin) using PIP2 as substrate incubated for 1 hr in presence of ATP under dark condition by ADP-Glo luminescent assay
# [11] = target: T1, Ribosomal protein S6 kinase (Homo sapiens); assay: Inhibition of S6 phosphorylation in human HGC-27 cells harboring PI3KCA mutation and overactive PI3K pathway at 0.08 to 0.4 uM compound irradiated for 2 mins at 365 nm by Western blot analysis; format: cell-based; conditions: dose 0.08-0.4 µM
# NCI-H460 [12] = assay: (§7) Induction of apoptosis in human NCI-H460 cells harboring PI3KCA mutation and overactive PI3K pathway assessed as early apoptotic cells at 0.4 uM incubated for 48 hrs under dark condition by Annexin V-FITC/PI staining based flow cytometry analysis (reference value: 2.6%); format: functional
# HGC-27 [13] = assay: Inhibition of cell migration in human HGC-27 cells harboring PI3KCA mutation and overactive PI3K pathway assessed as reduction in migratory ability at 0.08 to 0.4 uM incubated for 16 hrs under dark condition by crystal violet staining based assay; format: functional; conditions: dose 0.08-0.4 µM
# [14] = target: RAC-alpha serine/threonine-protein kinase (Homo sapiens) (UniProt P31749); assay: Inhibition of AKT phosphorylation at S473 residue in human HGC-27 cells harboring PI3KCA mutation and overactive PI3K pathway at 0.08 to 0.4 uM compound irradiated for 2 mins at 365 nm by Western blot analysis; format: cell-based; conditions: dose 0.08-0.4 µM
# HGC-27 [15] = assay: (§8) Induction of apoptosis in human HGC-27 cells harboring PI3KCA mutation and overactive PI3K pathway assessed as early apoptotic cells at 0.4 uM incubated for 48 hrs under dark condition by Annexin V-FITC/PI staining based flow cytometry analysis (reference value: 2.26%); format: functional
# [16] = target: RAC-alpha serine/threonine-protein kinase (Homo sapiens) (UniProt P31749); assay: Inhibition of AKT phosphorylation at T308 residue in human HGC-27 cells harboring PI3KCA mutation and overactive PI3K pathway by Western blot analysis; format: cell-based; conditions: dose 0.08-0.4 µM
# [17] = target: RAC-alpha serine/threonine-protein kinase (Homo sapiens) (UniProt P31749); assay: Inhibition of AKT phosphorylation at S473 residue in human HGC-27 cells harboring PI3KCA mutation and overactive PI3K pathway by Western blot analysis; format: cell-based; conditions: dose 0.08-0.4 µM
# NCI-H460 [18] = assay: (§9) Induction of apoptosis in human NCI-H460 cells harboring PI3KCA mutation and overactive PI3K pathway assessed as late apoptotic cells at 0.08 uM incubated for 48 hrs under dark condition by Annexin V-FITC/PI staining based flow cytometry analysis (reference value: 2.27%); format: functional
# NCI-H460 [19] = assay: as §9, with “irradiation with 365 nm UV light 2 mins once for every 8 hrs” for “dark condition”; format: functional
# HGC-27 [20] = assay: as §2, with “irradiation with 365 nm UV light 2 mins once for every 8 hrs” for “dark condition”; format: functional
# [21] = target: RAC-alpha serine/threonine-protein kinase (Homo sapiens) (UniProt P31749); assay: Inhibition of AKT phosphorylation at S473 residue in human HGC-27 cells harboring PI3KCA mutation and overactive PI3K pathway at 0.08 to 0.4 uM compound irradiated for 5 mins at 520 nm by Western blot analysis; format: cell-based; conditions: dose 0.08-0.4 µM
# HGC-27 [22] = assay: as §6, with “irradiation with 365 nm UV light 2 mins once for every 8 hrs” for “dark condition”; format: functional
# HGC-27 [23] = assay: as §5, with “presence of irradiation with 365 nm UV light” for “dark condition”; format: functional, cell-based; conditions: dose 0.391-0.781 ng
# NCI-H460 [24] = assay: as §7, with “irradiation with 365 nm UV light 2 mins once for every 8 hrs” for “dark condition”; format: functional
# HGC-27 [25] = assay: Inhibition of cell migration in human HGC-27 cells harboring PI3KCA mutation and overactive PI3K pathway assessed as reduction in migratory ability at 0.08 to 0.4 uM incubated for 16 hrs in presence of irradiation at 365 nm UV light for 2 mins once every 8 hrs by crystal violet staining based assay; format: functional; conditions: dose 0.08-0.4 µM
# NCI-H460 [26] = assay: as §1, with “irradiation with 365 nm UV light 2 mins once for every 8 hrs” for “dark condition”; format: functional
# HGC-27 [27] = assay: Inhibition of colony formation in human HGC-27 cells harboring PI3KCA mutation and overactive PI3K pathway assessed as reduction in number of colonies incubated for 10 days in presence of irradiation at 365 nm UV light for 2 mins once every 8 hrs by crystal violet staining based assay; format: functional, cell-based; conditions: dose 0.08-0.4 µM, time 10.0 day
# NCI-H460 [28] = assay: as §3, with “irradiation with 365 nm UV light 2 mins once for every 8 hrs” for “dark condition”; format: functional
# HGC-27 [29] = assay: as §8, with “irradiation with 365 nm UV light 2 mins once for every 8 hrs” for “dark condition”; format: functional
# [30] = target: T1, Ribosomal protein S6 kinase (Homo sapiens); assay: Inhibition of S6 phosphorylation in human HGC-27 cells harboring PI3KCA mutation and overactive PI3K pathway at 0.08 to 0.4 uM compound irradiated for 5 mins at 520 nm by Western blot analysis; format: cell-based; conditions: dose 0.08-0.4 µM
# HGC-27 [31] = assay: as §4, with “irradiation with 365 nm UV light 2 mins once for every 8 hrs” for “dark condition”; format: functional
# [32] = target: RAC-alpha serine/threonine-protein kinase (Homo sapiens) (UniProt P31749); assay: Inhibition of AKT phosphorylation at T308 residue in human HGC-27 cells harboring PI3KCA mutation and overactive PI3K pathway at 0.08 to 0.4 uM compound irradiated for 5 mins at 520 nm by Western blot analysis; format: cell-based; conditions: dose 0.08-0.4 µM
# [33] = target: T2, Phosphatidylinositol 4,5-bisphosphate 3-kinase catalytic subunit alpha isoform; assay: Inhibition of PI3Kalpha (unknown origin) using PIP2 as substrate incubated for 1 hr in presence of ATP under irradiation with 365 nm UV light by ADP-Glo luminescent assay
# Chain of RAC-alpha serine/threonine-protein kinase (Homo sapiens) (P31749 whole entry, canonical isoform): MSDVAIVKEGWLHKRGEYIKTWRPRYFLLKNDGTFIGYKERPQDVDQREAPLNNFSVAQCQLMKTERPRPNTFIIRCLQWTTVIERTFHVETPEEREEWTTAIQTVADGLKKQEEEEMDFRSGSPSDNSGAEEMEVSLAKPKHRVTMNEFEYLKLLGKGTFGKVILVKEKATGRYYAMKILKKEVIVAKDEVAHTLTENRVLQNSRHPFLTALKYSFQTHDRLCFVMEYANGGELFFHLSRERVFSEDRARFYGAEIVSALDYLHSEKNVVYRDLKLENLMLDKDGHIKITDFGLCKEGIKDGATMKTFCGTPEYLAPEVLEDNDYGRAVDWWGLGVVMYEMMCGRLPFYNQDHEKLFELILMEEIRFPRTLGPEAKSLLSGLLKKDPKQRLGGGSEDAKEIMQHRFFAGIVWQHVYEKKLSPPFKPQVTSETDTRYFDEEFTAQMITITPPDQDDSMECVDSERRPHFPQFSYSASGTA
# T2 sequence (P42336 whole entry, canonical isoform): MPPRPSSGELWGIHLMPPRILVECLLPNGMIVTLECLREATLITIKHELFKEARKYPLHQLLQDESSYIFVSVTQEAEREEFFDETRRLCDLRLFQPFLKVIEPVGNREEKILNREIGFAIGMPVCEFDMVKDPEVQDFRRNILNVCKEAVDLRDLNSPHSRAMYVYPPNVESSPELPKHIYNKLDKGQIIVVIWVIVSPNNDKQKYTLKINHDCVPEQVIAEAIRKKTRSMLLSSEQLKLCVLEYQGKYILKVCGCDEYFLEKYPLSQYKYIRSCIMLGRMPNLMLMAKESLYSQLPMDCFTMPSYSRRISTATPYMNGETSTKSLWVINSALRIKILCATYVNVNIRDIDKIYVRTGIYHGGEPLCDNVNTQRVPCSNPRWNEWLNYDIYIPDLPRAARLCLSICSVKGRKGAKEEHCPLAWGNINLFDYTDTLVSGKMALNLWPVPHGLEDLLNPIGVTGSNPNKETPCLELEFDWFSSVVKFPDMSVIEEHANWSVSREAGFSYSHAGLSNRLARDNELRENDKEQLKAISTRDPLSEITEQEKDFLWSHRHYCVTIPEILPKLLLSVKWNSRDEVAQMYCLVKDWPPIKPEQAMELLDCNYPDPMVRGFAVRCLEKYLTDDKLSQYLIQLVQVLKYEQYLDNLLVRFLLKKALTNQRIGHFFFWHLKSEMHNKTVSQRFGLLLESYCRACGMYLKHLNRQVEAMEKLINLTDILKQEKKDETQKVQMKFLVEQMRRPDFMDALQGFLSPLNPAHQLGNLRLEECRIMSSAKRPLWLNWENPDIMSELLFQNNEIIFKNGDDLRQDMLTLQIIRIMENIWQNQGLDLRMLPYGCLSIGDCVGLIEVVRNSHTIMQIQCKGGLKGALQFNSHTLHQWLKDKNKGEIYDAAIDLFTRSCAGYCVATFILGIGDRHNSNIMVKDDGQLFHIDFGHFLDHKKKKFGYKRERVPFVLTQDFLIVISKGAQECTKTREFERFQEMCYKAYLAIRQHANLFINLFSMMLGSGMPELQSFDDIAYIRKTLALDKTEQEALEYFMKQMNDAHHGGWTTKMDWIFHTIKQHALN
smiles,measurement,setting,value
COc1ncc(-c2cc(Oc3ccc(/N=N/c4ccc(Oc5cc(-c6cnc(OC)c(NS(=O)(=O)c7ccc(F)cc7F)c6)cc6c(C)ncnc56)cc4)cc3)c3ncnc(C)c3c2)cc1NS(=O)(=O)c1ccc(F)cc1F,Activity,NCI-H460 [1],4.84%
same,Activity,HGC-27 [2],5.11%
same,Activity,NCI-H460 [3],2.69%
same,inhibition,[4],Dose-Dependent Effect
same,inhibition,[5],Active
same,Activity,HGC-27 [6],7.28%
same,Activity,HGC-27 [7],Active
same,Activity,HGC-27 [8],15.95%
same,inhibition,HGC-27 [9],Dose-Dependent Effect
same,IC50,[10],0.0177 µM
same,inhibition,[11],Active
same,Activity,NCI-H460 [12],2.36%
same,inhibition,HGC-27 [13],Active
same,inhibition,[14],Active
same,Activity,HGC-27 [15],14.86%
same,inhibition,[16],Dose-Dependent Effect
same,inhibition,[17],Dose-Dependent Effect
same,Activity,NCI-H460 [18],3.17%
COc1ncc(-c2cc(Oc3ccc(/N=N\c4ccc(Oc5cc(-c6cnc(OC)c(NS(=O)(=O)c7ccc(F)cc7F)c6)cc6c(C)ncnc56)cc4)cc3)c3ncnc(C)c3c2)cc1NS(=O)(=O)c1ccc(F)cc1F,Activity,NCI-H460 [19],18.8%
same,Activity,HGC-27 [20],3.6%
same,inhibition,[21],Active
same,Activity,HGC-27 [22],14.28%
same,Activity,HGC-27 [23],Active
same,Activity,NCI-H460 [24],6.05%
same,inhibition,[4],Dose-Dependent Effect
same,inhibition,HGC-27 [25],Active
same,Activity,NCI-H460 [26],26.4%
same,inhibition,HGC-27 [27],Dose-Dependent Effect
same,Activity,NCI-H460 [28],5.44%
same,Activity,HGC-27 [29],66.74%
same,inhibition,[30],Active
same,inhibition,[16],Dose-Dependent Effect
same,inhibition,[17],Dose-Dependent Effect
same,Activity,HGC-27 [31],33.67%
same,inhibition,[32],Active
same,IC50,[33],0.00524 µM
